Laboratory results as given in US20220233602A1, “GENERATION OF NEURAL STEM CELL LINES DERIVED FROM HUMAN PLURIPOTENT STEM CELLS” (Novo Nordisk A/S, priority 2019, published 2022).
“Also recorded” adds a separate entry of the source. Read-outs that look alike come from different tables or passages of the source.

Experiments:
hESC [1] = settings: for Cell death: 3 = low number of pyknotic nuclei; for Rosette: 3 = high number of neural rosettes; for Thickness Epithelium: thicker columnar epithelium of the neural rosette; for Final Score: sum of the parameter scores; for No Side Population (OTX2 Neg): score by OTX2 staining: 3 = no detection of OTX2 negative cells, evaluated only in conditions without NES negative cells
Method: The experimental protocol used for neural induction of hESC and subsequent generation and NSC line establishment can roughly be divided in three main stages—Neuroectoderm induction and NECS formation; NECS plating and rosette formation and finally NSC line establishment by replating the cells in expansion media.
50-90% confluent hESC were washed with PBS^−/− and dissociated from monolayer culture with TrypLE™ Select (Gibco) at 37° C. for approximately 5 minutes to obtain single-cell suspension. The single-cell suspension of hESCs was resuspended in NutriStem® supplemented with 10 μM ROCKi (Y-27632) and as standard 1 mL with cell densities of 1×10^5-2×10^5 cells per mL was seeded into one single well (around 3.5 cm^2) of a 12-well plates (Day 0).
At day 1, around 50% of the medium was exchanged with NECS media consisting of DMEM/F12 GlutaMAX™ supplement (Gibco™) supplemented with 20 U/mL Penicillin-streptomycin, 1% N-2 Supplement (Gibco™) and GW788388 or RepSox in different concentrations, without ROCKi. To initiate rotary NECS formation, plates were from day 1-6 placed on a Multi Bio 3D Mini-shaker (BioSan) at different speeds, timeslots, levels and angle. As an example, one optimal condition was:
The NECS media was exchanged everyday by removing half of the media and adding fresh medium. […] After 6 days in dynamic conditions all NECS were collected and plated in 2D on 48-well plates, laminin coated. For coating, 1:50 natural mouse laminin (L2020-1MG, Sigma-Aldrich, 1 mg/ml) was performing fine, but the type of laminin can be also extended to LN-521 or LN-511 (BioLamina). From day 7 to day 10, now in attachment in 2D, all media was removed, and cells were re-feed with fresh NECS media. An example of the different steps can be shown in FIG. 4, with images after Day 3 (dynamic suspension), Day 8 (neural rosettes in 2D) and Day 10 (before single cell dissociation).
The parameters measured were cell death, rosette formation, a monolayer formation in 2D, thickness of the epithelium formed in the rosette structure, and the absence of side population (all cells being NES and OTX2 positive), i.e. purity of the cell population
Cell death: Monitored by DAPI (4′,6-diamidino-2-phenylindole) staining. Pyknosis, or karyopyknosis, is the irreversible condensation of chromatin in the nucleus of a cell undergoing necrosis or apoptosis. After visual inspection under the fluorescent microscope, a score of 0 represent high number of pyknotic nuclei and a score of 3 a low number of pyknotic nuclei.
Rosette numbers: Monitored by DAPI, ZO1 and NES stainings. After visual inspection under the fluorescent microscope, a score of 0 represent low number of neural rosettes nuclei and a score of 3 a high number of rosettes.
Monolayer formation: Monitored by brightfield and DAPI staining. After visual inspection under the microscope, a score of 3 represent a flat monolayer of cells after NECS attachment.
Thickness of the rosette columnar epithelium: Monitored by DAPI staining. After visual inspection under the fluorescent microscope, a score of 3 represent a broader, thicker columnar epithelium of the neural rosette.
Side population: Monitored by specific stainings of NES and OTX2. After visual inspection under the fluorescent microscope, a score of […] represents no detection of NES negative cells. Only in conditions without NES negative cells, the OTX2 population was evaluated. In those cases, a score of 3 represents no detection of OTX2 negative cells.

hESC [2] = assay: Differentiation protocol for NECS and rosette formation (brightfield, NES/ZO1 staining); type: cell-based, human; settings: for neural rosette formation, RepSox compared to GW788388: hESCs treated, NES and ZO1 staining (FIG. 6); for morphology of NECS: suspension culture, brightfield (FIG. 3)
Source text: As an example, one optimal condition was:

[3] = Low concentration (RepSox 0.25 μM, GW788388 0.1 ng/ml, SB525334 0.1 μM), score by DAPI: 0 = high number
[4] = Low concentration (RepSox 0.25 μM, GW788388 0.1 ng/ml, SB525334 0.1 μM), score: 0 = low number
[5] = Low concentration (RepSox 0.25 μM, GW788388 0.1 ng/ml, SB525334 0.1 μM), score: 3 = broader
[6] = Low concentration (RepSox 0.25 μM, GW788388 0.1 ng/ml, SB525334 0.1 μM), score: 3 = flat monolayer of cells after NECS attachment
[7] = Low concentration (RepSox 0.25 μM, GW788388 0.1 ng/ml, SB525334 0.1 μM), score: 6 = no detection of NES negative cells
[8] = Low concentration (RepSox 0.25 μM, GW788388 0.1 ng/ml, SB525334 0.1 μM)
[9] = score by DAPI staining: 0 = high number, RepSox 25 μM, LY2157299 10 μM, TEW-7197 10 μM, GW788388 10 ng/ml, SB525334 10 μM, SB431542 10 μM, SB431542+LDN 10 μM+10 μM, LY2109761 2 μM
[10] = score by DAPI, ZO1, NES staining: 0 = low number, RepSox 25 μM, LY2157299 10 μM, TEW-7197 10 μM, GW788388 10 ng/ml, SB525334 10 μM, SB431542 10 μM, SB431542+LDN 10 μM+10 μM, LY2109761 2 μM
[11] = score by DAPI: 3 = broader, RepSox 25 μM, LY2157299 10 μM, TEW-7197 10 μM, GW788388 10 ng/ml, SB525334 10 μM, SB431542 10 μM, SB431542+LDN 10 μM+10 μM, LY2109761 2 μM
[12] = score by NES staining: 6 = no detection of NES negative cells, RepSox 25 μM, LY2157299 10 μM, TEW-7197 10 μM, GW788388 10 ng/ml, SB525334 10 μM, SB431542 10 μM, SB431542+LDN 10 μM+10 μM, LY2109761 2 μM
[13] = score by brightfield and DAPI: 3 = flat monolayer of cells after NECS attachment, RepSox 25 μM, LY2157299 10 μM, TEW-7197 10 μM, GW788388 10 ng/ml, SB525334 10 μM, SB431542 10 μM, SB431542+LDN 10 μM+10 μM, LY2109761 2 μM
[14] = RepSox 25 μM, LY2157299 10 μM, TEW-7197 10 μM, GW788388 10 ng/ml, SB525334 10 μM, SB431542 10 μM, SB431542+LDN 10 μM+10 μM, LY2109761 2 μM
[15] = RepSox 25 μM, LY2157299 10 μM, TEW-7197 10 μM, SB431542+LDN 10 μM+10 μM, LY2109761 2 μM

Row | Structure (SMILES) | Cell death (hESC [1]; [3]) | Rosette (hESC [1]; [4]) | Thickness Epithelium (hESC [1]; [5]) | Monolayer formation (hESC [1]; [6]) | No Side Population (NES Neg) (hESC [1]; [7]) | Final Score (hESC [1]; [8]) | Cell death (hESC [1]; [9]) | Rosette (hESC [1]; [10]) | Thickness Epithelium (hESC [1]; [11]) | No Side Population (NES Neg) (hESC [1]; [12]) | Monolayer formation (hESC [1]; [13]) | Final Score (hESC [1]; [14]) | neural rosette formation, RepSox compared to GW788388 (hESC [2]) | morphology of NECS (hESC [2]) | No Side Population (OTX2 Neg) (hESC [1]; [15]) | homogeneous population of neural rosettes with NES positive cells and ZO1 in the center of each rosette (hESC [2]; RepSox 25 and 50 μM (FIGS. 7 and 8)) | homogeneous population of neural rosettes with NES positive cells and ZO1 in the center of each rosette (hESC [2]; lower concentrations of RepSox (0.25 μM, 2.5 μM; FIGS. 7 and 8))
1 | O=C(NC1CCOCC1)c1ccc(-c2cc(-c3cn[nH]c3-c3ccccn3)ccn2)cc1 [GW788388, N-(oxan-4-yl)-4-[4-(5-pyridin-2-yl-1H-pyrazol-4-yl)pyridin-2-yl]benzamide] | 2 | 2 | 2 | 3 | 0 | 9 | 3 | 3 | 3 | 0 | 3 | 12 | only few rosettes are observed | darker and denser core | – | – | –
2 | c1ccc(-c2nn3c(c2-c2ccnc4cc(OCCN5CCOCC5)ccc24)CCC3)nc1 [LY2109761] | – | – | – | – | – | – | 0 | 0 | 0 | 6 | 0 | 9 | – | – | 3 | – | –
3 | Cc1cccc(-c2nn3c(c2-c2ccnc4ccc(C(N)=O)cc24)CCC3)n1 [LY2157299, 4-[2-(6-methylpyridin-2-yl)-5,6-dihydro-4H-pyrrolo[1,2-b]pyrazol-3-yl]quinoline-6-carboxamide] | – | – | – | – | – | – | 3 | 3 | 3 | 6 | 2 | 17 | – | – | 0 | – | –
4 | Cc1cccc(-c2n[nH]cc2-c2ccc3ncccc3n2)n1 [RepSox, 2-(3-(6-Methylpyridine-2-yl)-1H-pyrazol-4-yl)-1,5-naphthyridine] | – | 3 | 3 | 3 | 0 | 12 | – | 3 | 2 | 6 | 3 | 20 | superior; also recorded: multiple neural rosettes are observed | more transparent NECS; also recorded: bright cavities | 3 | optimal to obtain an homogeneous population of neural rosettes | less clear effect
5 | NC(=O)c1ccc(-c2nc(-c3ccc4c(c3)OCO4)c(-c3ccccn3)[nH]2)cc1 [SB431542, 4-[4-(1,3-benzodioxol-5-yl)-5-(2-pyridinyl)-1H-imidazol-2-yl]benzamide] | – | – | – | – | – | – | – | 3 | 2 | 0 | 2 | 10 | – | – | – | – | –
6 | Cc1cccc(-c2[nH]c(C(C)(C)C)nc2-c2ccc3nccnc3c2)n1 [SB525334] | 2 | 3 | 3 | 2 | 0 | 10 | 0 | 3 | 2 | 4 | 2 | 11 | – | – | – | – | –
7 | Cc1cccc(-c2[nH]c(CNc3ccccc3F)nc2-c2ccc3ncnn3c2)n1 [TEW-7197, 2-fluoro-N[[5-(6-methylpyridin-2-yl)-4-([1,2,4]triazolo[1,5-a]pyridin-6-yl)-1H-imidazol-2-yl]methyl]aniline] | – | – | – | – | – | – | – | 2 | 2 | 6 | 2 | 15 | – | – | 3 | – | –
